The target of experiment [1] is T1, CDK2/CyclinA (Homo sapiens, UniProt P24941).
T1 construct: purchased Invitrogen PV3267
Briefly: In vitro kinase activity assay (PKLight), CDK2/Cyclin A. The format is biochemical. As to conditions: 0.5 μM ATP. Here is the method:
(§1) The recombinant enzymes (CDK2/CyclinA, FLT3, JAK2 and JAK2 V617F) were purchased from Invitrogen (Cat #PV3267, 3182, 4210 and 4347 respectively). All assays were carried out in 384-well white microtiter plates using the PKLight assay system from Cambrex (East Rutherford, N.J.). This assay platform is essentially a luminometric assay for the detection of ATP in the reaction using a luciferase-coupled reaction. For CDK2/Cyclin A assay, the reaction mixture consisted of the following components in 25 μL assay buffer (50 mM Hepes pH 7.5, 10 mM MgCl2, 5 mM MnCl2, 5 mM BGP, 1 mM DTT, 0.1 mM sodium orthovanadate), 1.4 μg/mL of CDK2/Cyclin A complex, 0.5 μM of RbING substrate (Invitrogen, Cat #PV2939) and 0.5 μM of ATP. The compounds were tested at 8 concentrations prepared from 4-fold serial dilution starting at 10 μM. The reaction was incubated at room temperature for 2 hr. 13 μL of PKLight ATP detection reagent was added and the reaction was incubated for 10 min. Luminescence signals were detected on a multi-label plate reader (Victor^2 V 1420, Perkin-Elmer). The other kinase assays were identical except for the following differences in reagents. For FLT3 assays, the reaction contained 2.0 μg/mL FLT3 enzyme, 5 μM of poly(Glu,Tyr) substrate (Sigma, Cat #P0275) and 4 μM of ATP. For JAK2 assays, the reaction contained 0.6 μg/mL of JAK2 enzyme, 2 μM of poly(Glu,Ala,Tyr) substrate (Sigma, Cat #P3899) and 0.2 μM of ATP. For JAK2 V617F mutant assays, the reaction contained 8.0 μg/mL of JAK2 mutant enzyme, 2 μM of poly(Glu,Ala,Tyr) substrate (Sigma, Cat #P3899) and 0.2 μM of ATP. The analytical software, Prism 4.0 (GraphPad Software Pte Ltd) was used to generate IC50 values from the data.

Experiment [2] addresses T2, FLT3 (Homo sapiens, UniProt P36888).
T2 construct: purchased Invitrogen PV3182
T2 sequence (P36888 27-993): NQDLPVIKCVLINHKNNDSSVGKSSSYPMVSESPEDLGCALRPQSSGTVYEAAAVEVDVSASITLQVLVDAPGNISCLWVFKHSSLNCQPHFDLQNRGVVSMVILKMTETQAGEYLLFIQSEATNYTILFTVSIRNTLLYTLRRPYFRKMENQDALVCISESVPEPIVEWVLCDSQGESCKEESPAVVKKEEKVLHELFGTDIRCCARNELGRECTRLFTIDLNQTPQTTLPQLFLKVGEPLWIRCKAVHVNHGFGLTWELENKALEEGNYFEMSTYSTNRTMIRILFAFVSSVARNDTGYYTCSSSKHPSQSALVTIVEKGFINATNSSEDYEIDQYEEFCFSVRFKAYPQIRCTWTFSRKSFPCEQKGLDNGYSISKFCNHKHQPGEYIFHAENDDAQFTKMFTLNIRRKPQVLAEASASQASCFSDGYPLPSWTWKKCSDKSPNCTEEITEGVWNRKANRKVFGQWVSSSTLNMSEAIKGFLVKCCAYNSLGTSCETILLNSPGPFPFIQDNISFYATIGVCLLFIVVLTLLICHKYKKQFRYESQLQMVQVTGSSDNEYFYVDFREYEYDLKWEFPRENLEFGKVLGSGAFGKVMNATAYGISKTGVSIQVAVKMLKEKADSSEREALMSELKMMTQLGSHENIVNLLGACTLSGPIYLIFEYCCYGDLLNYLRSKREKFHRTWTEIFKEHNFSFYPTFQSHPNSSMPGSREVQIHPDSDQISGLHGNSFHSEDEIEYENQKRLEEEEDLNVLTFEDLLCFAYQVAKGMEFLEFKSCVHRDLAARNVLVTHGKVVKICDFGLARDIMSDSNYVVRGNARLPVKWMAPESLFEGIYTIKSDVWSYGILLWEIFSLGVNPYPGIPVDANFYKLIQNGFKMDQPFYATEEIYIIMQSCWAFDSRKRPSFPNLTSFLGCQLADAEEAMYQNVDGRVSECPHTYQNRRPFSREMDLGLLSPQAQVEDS
As to the kind of experiment: In vitro kinase activity assay (PKLight), FLT3. The format is biochemical. Here is the method:
as §1, with “All” for “The recombinant enzymes (CDK2/CyclinA, FLT3, JAK2 and JAK2 V617F) were purchased from Invitrogen (Cat #PV3267, 3182, 4210 and 4347 respectively). All”, “For JAK2 V617F mutant assays, the reaction contained 8.0 μg/mL of JAK2 mutant enzyme, 2 μM of poly(Glu,Ala,Tyr) substrate (Sigma, Cat #P3899) and 0.2 μM of ATP.” left out

The target of experiment [3] is T3, JAK2 (Homo sapiens, UniProt O60674).
T3 construct: purchased Invitrogen PV4210
Briefly: In vitro kinase activity assay (PKLight), JAK2. The format is biochemical. Here is the method: as §1, with “All” for “The recombinant enzymes (CDK2/CyclinA, FLT3, JAK2 and JAK2 V617F) were purchased from Invitrogen (Cat #PV3267, 3182, 4210 and 4347 respectively). All”, “For JAK2 V617F mutant assays, the reaction contained 8.0 μg/mL of JAK2 mutant enzyme, 2 μM of poly(Glu,Ala,Tyr) substrate (Sigma, Cat #P3899) and 0.2 μM of ATP.” left out

The target of experiment [4] is T4, JAK2 V617F (Homo sapiens, UniProt O60674, V617F).
T4 construct: purchased Invitrogen PV4347
Briefly: In vitro kinase activity assay (PKLight), JAK2 V617F mutant. The format is biochemical. Here is the method:
as §1, with “All” for “The recombinant enzymes (CDK2/CyclinA, FLT3, JAK2 and JAK2 V617F) were purchased from Invitrogen (Cat #PV3267, 3182, 4210 and 4347 respectively). All”, “For JAK2 V617F mutant assays, the reaction contained 8.0 μg/mL of JAK2 mutant enzyme, 2 μM of poly(Glu,Ala,Tyr) substrate (Sigma, Cat #P3899) and 0.2 μM of ATP.” left out

Experiment [5] relates to HL60 (acute myeloid leukemia cell line). Briefly: Cell-based proliferation assay for GI50, HL60. The following applies: Homo sapiens, HL-60; HL60 cells, 96 h treatment. Here is the method:
(§2) Human cancer cell lines HL60 (acute myeloid leukemia cell line), Colo205 (colon adenocarcinoma cell line), HEL92.1.7 (erythroleukemia cell line) and MV4-11 (acute myeloid leukemia cell line) were obtained from ATCC. They were cultivated in the media according to the ATCC work instructions. Colo205 cells were seeded in 96-wells plate at 5000 cells per well. HEL92.1.7 and MV4-11 cells were seeded at 6000 cells per well while HL60 cells were seeded at 8000 cells per well in 96 well plate. The plates were incubated at 37° C., 5% CO2, for 24 h. Cells were treated with compounds at various concentrations for 96 h. Cell growth was then monitored using Celltiter96 Aqueous One Solution Cell Proliferation Assay from Promega (Madison Wis.). Dose response curves were plotted to determine GI50 values for the compounds using XL-fit (ID Business Solution, Emeryville, Calif.).

The subject of experiment [6] is Colo205 (colon adenocarcinoma cell line). As to the kind of experiment: Cell-based proliferation assay for GI50, Colo205. As to conditions: Homo sapiens, COLO 205; Colo205 cells, 96 h treatment. Here is the method: as §2
In experiment [7] the test system is HEL92.1.7 (erythroleukemia cell line). Briefly: Cell-based proliferation assay for GI50, HEL92.1.7. The following applies: Homo sapiens, HEL 92.1.7; HEL92.1.7 cells, 96 h treatment. Here is the method:
as §2

Experiment [8] has as its system MV4-11 (acute myeloid leukemia cell line). As to the kind of experiment: Cell-based proliferation assay for GI50, MV4-11. The following applies: Homo sapiens; MV4-11 cells, 96 h treatment. Here is the method: as §2

Molecules are shown by their SMILES.

T4 sequence (O60674 whole entry V617F): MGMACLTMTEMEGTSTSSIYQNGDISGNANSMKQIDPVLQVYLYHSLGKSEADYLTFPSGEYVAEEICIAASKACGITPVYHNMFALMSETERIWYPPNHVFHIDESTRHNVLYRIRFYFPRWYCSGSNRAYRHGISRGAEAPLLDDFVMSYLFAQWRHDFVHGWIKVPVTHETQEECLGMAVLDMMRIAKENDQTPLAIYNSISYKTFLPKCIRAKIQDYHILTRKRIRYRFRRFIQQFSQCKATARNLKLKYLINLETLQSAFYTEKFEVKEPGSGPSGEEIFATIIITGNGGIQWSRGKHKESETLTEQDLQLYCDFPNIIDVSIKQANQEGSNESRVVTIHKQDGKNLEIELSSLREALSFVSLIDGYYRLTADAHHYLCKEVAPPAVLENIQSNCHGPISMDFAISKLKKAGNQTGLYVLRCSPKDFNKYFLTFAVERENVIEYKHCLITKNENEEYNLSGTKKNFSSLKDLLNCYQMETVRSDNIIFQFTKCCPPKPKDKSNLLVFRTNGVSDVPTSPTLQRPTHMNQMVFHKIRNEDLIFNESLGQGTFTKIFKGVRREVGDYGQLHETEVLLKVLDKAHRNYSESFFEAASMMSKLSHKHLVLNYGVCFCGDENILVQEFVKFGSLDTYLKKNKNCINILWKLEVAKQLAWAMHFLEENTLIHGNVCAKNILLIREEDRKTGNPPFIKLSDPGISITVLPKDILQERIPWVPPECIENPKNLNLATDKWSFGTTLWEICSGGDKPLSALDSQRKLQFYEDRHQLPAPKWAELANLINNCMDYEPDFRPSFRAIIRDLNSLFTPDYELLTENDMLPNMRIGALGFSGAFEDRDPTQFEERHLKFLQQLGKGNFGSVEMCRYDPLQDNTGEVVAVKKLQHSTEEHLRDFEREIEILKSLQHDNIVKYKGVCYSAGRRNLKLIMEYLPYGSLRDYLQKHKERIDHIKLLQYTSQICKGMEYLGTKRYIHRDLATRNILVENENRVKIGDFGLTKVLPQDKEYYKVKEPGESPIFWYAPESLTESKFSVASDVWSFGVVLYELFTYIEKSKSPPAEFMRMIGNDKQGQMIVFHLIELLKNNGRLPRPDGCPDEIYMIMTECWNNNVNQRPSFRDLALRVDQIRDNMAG
T3 sequence (O60674 whole entry): as the sequence (O60674 whole entry V617F) above, with F617V counted along it

Consider `CCN(CC)CCOc1ccc2cc1COC/C=C/COCc1cccc(c1)-c1ccnc(n1)N2` [Compound 15], for which the IC50 – broadly, the concentration needed to halve the response being measured – in experiment [1] was 1000 to 5000 nM; in experiment [2], ≤ 1000 nM; in experiment [3], ≤ 1000 nM; in experiment [4], ≤ 1000 nM. For the same compound, the concentration for 50% growth inhibition (GI50) (usually the concentration at which growth is held to half of that of the control) was ≤ 1000 nM in experiment [5], 1000 to 5000 nM in experiment [6], 1000 to 5000 nM in experiment [7] and ≤ 1000 nM in experiment [8].
For `CCN(CC)CCOc1ccc2cc1COC/C=C/CCOc1cccc(c1)-c1nc(ncc1C)N2` [Compound 29], the half-maximal inhibitory concentration (IC50) in experiment [1] is > 5000 nM; in experiment [2], ≤ 1000 nM; in experiment [3], ≤ 1000 nM; in experiment [4], ≤ 1000 nM. The values for the GI50 in experiment [5], in experiment [7] and in experiment [8] were ≤ 1000 nM, 1000 to 5000 nM and ≤ 1000 nM, respectively.
In the case of `COc1ccc2cc1COC/C=C/COCc1cc(ccc1OCCN1CCCC1)Nc1nccc-2n1` [Compound 14], the IC50 in experiment [1] was > 5000 nM; in experiment [2], ≤ 1000 nM; in experiment [3], ≤ 1000 nM; in experiment [4], ≤ 1000 nM. Also, the concentration for 50% growth inhibition (GI50) was ≤ 1000 nM in experiment [5], 1000 to 5000 nM in experiment [6], ≤ 1000 nM in experiment [7] and ≤ 1000 nM in experiment [8].
As to `CCN(CC)CCOc1ccc2cc1COC/C=C/CCOc1cccc(c1)-c1ccnc(n1)N2` [Compound 19], the IC50 in experiment [1] was > 5000 nM; in experiment [2], ≤ 1000 nM; in experiment [3] it was ≤ 1000 nM; in experiment [4], ≤ 1000 nM. For the same compound, the GI50 in experiment [5], in experiment [6], in experiment [7] and in experiment [8] was ≤ 1000 nM each time.
Regarding `CCN(CC)CCOc1ccc2cc1COC/C=C/CCOc1cc(ccc1OC)-c1ccnc(n1)N2` [Compound 20], the concentration for half-maximal inhibition (IC50) is > 5000 nM in experiment [1], ≤ 1000 nM in experiment [2], ≤ 1000 nM in experiment [3] and ≤ 1000 nM in experiment [4]. In addition, the 50% growth inhibitory concentration (GI50) in experiment [5] is 1000 to 5000 nM; in experiment [6] it was > 5000 nM; in experiment [7], > 5000 nM; in experiment [8], ≤ 1000 nM.

These data come from patent US9573964B2, “Oxygen linked pyrimidine derivatives” (CTI BIOPHARMA CORP., priority 2005, dated 2017).
